Source: US11414425B2 (priority 2018, dated 2022)

Tests used:
GABAAα5 receptor = target: T1, GABAAα5 receptor (Rattus norvegicus, UniProt P18508+P19969); experiment: in vivo; assay type: in vivo, Long Evans rats; details: i.v.
T1 construct: occupancy in the hippocampus (a region of high GABAAα5 receptor density); from tissue; host or cells: rat brain in vivo: hippocampus versus cerebellum
Text: Food and water were available ad libitum.

α5β3γ2 GABAA receptors = α5β3γ2 GABAA receptors (Homo sapiens, UniProt P18507+P31644); experiment: [3H]Ro15-1788 binding, membranes of Ltk cells stably expressing α5β3γ2 GABAA receptors; details: ranges; inhibition of [3H]Ro15-1788 binding
α5β3γ2 GABAA receptors, sequence (P31644 32-462): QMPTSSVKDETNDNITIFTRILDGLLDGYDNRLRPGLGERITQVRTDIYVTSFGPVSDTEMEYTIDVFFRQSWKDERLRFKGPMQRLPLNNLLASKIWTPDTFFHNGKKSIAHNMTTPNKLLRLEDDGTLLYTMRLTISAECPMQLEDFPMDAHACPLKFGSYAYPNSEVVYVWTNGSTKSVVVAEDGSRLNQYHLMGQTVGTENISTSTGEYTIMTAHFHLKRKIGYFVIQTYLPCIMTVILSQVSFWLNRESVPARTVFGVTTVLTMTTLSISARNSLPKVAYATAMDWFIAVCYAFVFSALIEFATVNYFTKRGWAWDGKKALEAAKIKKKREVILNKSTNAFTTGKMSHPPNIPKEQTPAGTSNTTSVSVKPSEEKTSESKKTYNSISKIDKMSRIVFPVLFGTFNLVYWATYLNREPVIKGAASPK
α5β3γ2 GABAA receptors, sequence (P28472 26-473 partner): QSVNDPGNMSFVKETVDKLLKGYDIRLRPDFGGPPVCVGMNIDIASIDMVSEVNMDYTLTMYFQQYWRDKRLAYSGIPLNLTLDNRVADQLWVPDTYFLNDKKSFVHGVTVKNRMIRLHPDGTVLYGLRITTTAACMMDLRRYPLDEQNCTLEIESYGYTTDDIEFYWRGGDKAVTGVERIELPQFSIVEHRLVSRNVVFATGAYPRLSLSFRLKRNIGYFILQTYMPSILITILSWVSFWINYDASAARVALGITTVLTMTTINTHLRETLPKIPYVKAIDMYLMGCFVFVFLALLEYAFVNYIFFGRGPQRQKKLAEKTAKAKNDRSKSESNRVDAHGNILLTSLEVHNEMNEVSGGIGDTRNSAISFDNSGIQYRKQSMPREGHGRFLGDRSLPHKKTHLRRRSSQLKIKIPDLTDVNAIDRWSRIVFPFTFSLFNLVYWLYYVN
α5β3γ2 GABAA receptors, sequence (P18507 40-475): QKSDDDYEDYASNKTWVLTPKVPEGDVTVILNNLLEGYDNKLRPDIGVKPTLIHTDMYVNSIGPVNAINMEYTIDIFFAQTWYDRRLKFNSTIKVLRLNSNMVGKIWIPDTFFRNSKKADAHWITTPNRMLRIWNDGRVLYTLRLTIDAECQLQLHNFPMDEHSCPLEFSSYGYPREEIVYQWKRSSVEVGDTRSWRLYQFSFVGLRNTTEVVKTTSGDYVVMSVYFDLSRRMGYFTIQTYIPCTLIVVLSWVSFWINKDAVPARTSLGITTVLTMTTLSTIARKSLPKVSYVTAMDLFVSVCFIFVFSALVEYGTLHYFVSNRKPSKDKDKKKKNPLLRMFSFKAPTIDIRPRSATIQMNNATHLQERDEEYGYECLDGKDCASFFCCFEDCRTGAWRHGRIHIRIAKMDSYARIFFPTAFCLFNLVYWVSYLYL

GABAA receptors (α5β2γ2) = target: T2, GABAA receptors (α5β2γ2) (Homo sapiens, UniProt P18507+P31644); experiment: Positive allosteric modulator activity: potentiation of EC20 GABA current in oocytes; assay type: cell-based; details: read-out: GABA α5 Functional Data (potentiation of EC20 GABA); @ 100 nM; ranges
T2 construct: expressed in transfected cells
T2 sequence (P31644 32-462): as the sequence (P31644 32-462) above
T2 sequence (P47870 25-512, further chain): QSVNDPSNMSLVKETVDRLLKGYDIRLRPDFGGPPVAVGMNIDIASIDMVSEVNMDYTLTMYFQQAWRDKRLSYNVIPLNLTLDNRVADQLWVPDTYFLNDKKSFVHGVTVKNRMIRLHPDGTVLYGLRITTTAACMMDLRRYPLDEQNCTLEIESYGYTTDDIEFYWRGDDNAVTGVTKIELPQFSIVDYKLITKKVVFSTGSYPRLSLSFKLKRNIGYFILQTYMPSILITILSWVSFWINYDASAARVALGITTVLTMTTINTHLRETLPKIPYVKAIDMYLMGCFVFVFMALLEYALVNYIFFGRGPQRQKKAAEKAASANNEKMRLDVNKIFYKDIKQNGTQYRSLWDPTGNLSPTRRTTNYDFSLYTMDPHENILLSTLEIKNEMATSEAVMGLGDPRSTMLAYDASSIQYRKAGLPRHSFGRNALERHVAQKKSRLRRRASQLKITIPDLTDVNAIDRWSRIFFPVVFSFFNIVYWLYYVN
T2 sequence (P18507 40-475): as the sequence (P18507 40-475) above
Protocol: On day 1, 1 ng/32 nL of GABAA α5β2γ2 cDNA was injected into one oocyte. Test starts on day 2. The cDNA injected to the oocytes was a mix of alpha, beta and gamma, their ratio is 1:1:10 (by weight) and the total weight of the mixed 3 subunits to be injected in one oocyte was 1 ng in 32 nl volume. The injected oocytes can also be tested on day 3. In such case, the cDNA amount injected to the oocytes should be reduced by 20%.
1). 8 oocytes were placed in 8 chambers of OpusXpress and superfused with Modified Barth's Saline (MBS) at 3 mL/min. Glass electrodes back-filled with 3M KCl (0.5-3 megaohms) were used.
1). New oocytes were used to run new test.
3). […] Oocytes were washed with MBS for 5-10 min.
4). […] Itest was divided by IGABA to obtain potentiation (%).
Test Compounds at Multiple Doses • 1). Repeat the above steps 1), 2) and 3) in the control test. • 2). […] Divide Itest by IGABA to obtain potentiation (%). • 3). Discard all tested oocytes, new oocytes were used and the above steps 1) and 2) were repeated to test second concentration of the same compound. Each oocyte was used for only one concentration test for a single test compound. The steps were repeated for other test compounds.

T1 sequence (P19969 32-464): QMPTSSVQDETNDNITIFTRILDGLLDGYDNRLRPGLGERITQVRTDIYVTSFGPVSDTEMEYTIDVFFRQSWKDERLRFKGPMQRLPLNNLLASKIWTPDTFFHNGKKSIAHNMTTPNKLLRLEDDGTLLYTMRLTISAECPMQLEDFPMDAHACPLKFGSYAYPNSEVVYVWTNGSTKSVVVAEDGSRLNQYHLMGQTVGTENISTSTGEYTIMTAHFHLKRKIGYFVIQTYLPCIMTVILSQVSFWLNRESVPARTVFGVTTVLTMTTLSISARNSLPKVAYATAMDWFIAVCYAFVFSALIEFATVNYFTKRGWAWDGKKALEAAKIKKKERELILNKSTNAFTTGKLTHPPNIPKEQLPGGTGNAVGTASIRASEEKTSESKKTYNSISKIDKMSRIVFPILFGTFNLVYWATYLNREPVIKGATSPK
T1 sequence (P18508 39-466): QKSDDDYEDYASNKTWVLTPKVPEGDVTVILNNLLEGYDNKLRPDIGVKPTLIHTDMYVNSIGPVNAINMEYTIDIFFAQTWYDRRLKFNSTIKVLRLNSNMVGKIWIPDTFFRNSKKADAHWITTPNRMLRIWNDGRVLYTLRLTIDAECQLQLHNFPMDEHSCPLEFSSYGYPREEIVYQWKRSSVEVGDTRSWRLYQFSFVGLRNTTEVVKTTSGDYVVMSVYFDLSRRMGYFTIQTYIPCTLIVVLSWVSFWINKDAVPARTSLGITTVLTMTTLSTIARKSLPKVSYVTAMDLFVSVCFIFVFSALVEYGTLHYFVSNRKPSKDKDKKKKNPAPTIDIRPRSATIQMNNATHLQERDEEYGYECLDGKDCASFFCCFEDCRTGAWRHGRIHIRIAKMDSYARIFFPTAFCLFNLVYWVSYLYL

Compound | Ki (α5β3γ2 GABAA receptors) [nM] | activation at 0.1 µM (GABAA receptors (α5β2γ2)) [%] | also measured
Ro 15-4513 |  |  | levels of Ro 15-4513 in cerebellum (GABAAα5 receptor; tracer 1 μg/kg, after vehicle): 0.36 ± 0.02 ng/g; levels of Ro 15-4513 in hippocampus (GABAAα5 receptor; tracer 1 μg/kg, after vehicle): 1.93 ± 0.05 ng/g; levels of Ro 15-4513 in hippocampus compared with cerebellum (GABAAα5 receptor; tracer 1 μg/kg, after vehicle): > 5 fold
Clc1ccc2c(c1)-n1nncc1Cc1c(C3=NCC(c4ccccn4)O3)ncn1-2 (stereo not drawn) [Compound 627] | < 100 | 20 to 50 | 
COCc1nnc2n1Cc1c(C#Cc3ccc(OC)nn3)ncn1-c1ccc(Cl)cc1-2 [Compound 707] | < 100 | > 50 | 
COCc1nnc2n1Cc1c(C#Cc3ncc(OC)cn3)ncn1-c1ccc(Cl)cc1-2 [Compound 574] | < 100 | > 50 | 
Cc1noc(-c2ncn3c2Cc2c(Cc4cccc(F)c4)nnn2-c2cc(C(F)(F)F)ccc2-3)n1 [Compound 482] | < 100 | 20 to 50 | 
COCc1nnc2n1Cc1c(C#Cc3cnc(OC)s3)ncn1-c1ccc(Cl)cc1-2 [Compound 606, 5-((3-chloro-7-(methoxymethyl)-9H-benzo[f]imidazo[1,5-a][1,2,4]triazolo[4,3-d][1,4]diazepin-10-yl)ethynyl)-2-methoxythiazole] | < 100 | 20 to 50 | 
COc1cccc(C2CN=C(c3ncn4c3Cc3cnnn3-c3cc(Cl)ccc3-4)O2)n1 (stereo not drawn) [Compound 631] | < 100 | 5 to 20 | 
Clc1ccc([C@@H]2COC(c3ncn4c3Cc3cnnn3-c3cc(Cl)ccc3-4)=N2)cc1 [Compound 518] | < 100 | 5 to 20 | 
COc1ccc(C#Cc2ncn3c2Cc2cnnn2-c2cc(OC(F)F)ccc2-3)cc1 [Compound 498] | < 100 | 5 to 20 | 
COCc1nnc2n1Cc1c(C#Cc3ccc(C)cn3)ncn1-c1ccc(OC)cc1-2 [Compound 562] | < 100 | 20 to 50 | 
COCc1nnc2n1Cc1c(C#Cc3ccc(OC)nc3)ncn1-c1ccc(Cl)cc1-2 [Compound 527] | < 100 | 20 to 50 | 
COCc1nnc2n1Cc1c(C#Cc3ccn4ccnc4c3)ncn1-c1ccc(OC)cc1-2 [Compound 675] | < 100 | > 50 | 
Cc1noc(-c2ncn3c2Cc2cnnn2-c2cc(Br)ccc2-3)n1 [Compound 473] | < 100 | 5 to 20 | 
Cc1noc(-c2ncn3c2Cc2c(Cc4ccc(F)cc4)nnn2-c2cc(OC(F)F)ccc2-3)n1 [Compound 492] | < 100 | 20 to 50 | 
COCc1nnc2n1Cc1c(C#Cc3cnccn3)ncn1-c1ccc(Cl)cc1-2 [Compound 576] | < 100 | 20 to 50 | 
COCc1nnn2c1Cc1c(C#Cc3ccc(OC)nc3)ncn1-c1ccc(OC)cc1-2 [Compound 641] | < 100 | 20 to 50 | 
Clc1cccc([C@@H]2COC(c3ncn4c3Cc3cnnn3-c3cc(Cl)ccc3-4)=N2)c1 [Compound 515] | < 100 | 5 to 20 | 
CC(C)(C)C#Cc1ncn2c1Cc1cnnn1-c1cc(Cl)ccc1-2 [Compound 534] | < 100 | 5 to 20 | 
Cc1noc(-c2ncn3c2Cc2c(Cc4cccc(F)c4)nnn2-c2cc(OC(F)F)ccc2-3)n1 [Compound 491] | < 100 | 20 to 50 | 
Fc1ccc(C#Cc2ncn3c2Cc2cnnn2-c2cc(C(F)(F)F)ccc2-3)cc1 [Compound 501] | < 100 | 20 to 50 | 
FC(F)Oc1ccc2c(c1)-n1nncc1Cc1c(C#CC3(c4ccccc4)CC3)ncn1-2 [Compound 504] | < 100 | 5 to 20 | 
COCc1nnc2n1Cc1c(C3=NC[C@@H](c4ccc(Cl)cc4)O3)ncn1-c1ccc(Cl)cc1-2 [Compound 717] | < 100 | > 50 | 

Compound | Ki (α5β3γ2 GABAA receptors) [nM] | activation at 0.1 µM (GABAA receptors (α5β2γ2)) [%] | also measured
COCc1nnc2n1Cc1c(C#Cc3ccn(C)n3)ncn1-c1ccc(Cl)cc1-2 [Compound 683] | < 100 | > 50 | 
COc1ccc(C#Cc2ncn3c2Cc2cnnn2-c2cc(C(F)(F)F)ccc2-3)cn1 [Compound 553] | < 100 | 5 to 20 | 
COCc1nnc2n1Cc1c(C#Cc3ccc(C(C)C)cc3)ncn1-c1ccc(OC)cc1-2 [Compound 716] | < 100 | 5 to 20 | 
Fc1ccc(C#Cc2ncn3c2Cc2cnnn2-c2cc(OC(F)F)ccc2-3)cc1 [Compound 500] | < 100 | 5 to 20 | 
CC(C)(C)c1nc(-c2ncn3c2Cc2cnnn2-c2cc(Cl)ccc2-3)no1 [Compound 536] | < 100 | 20 to 50 | 
COc1ccc2c(c1)-n1nncc1Cc1c(C3=NCC(c4ccncc4)O3)ncn1-2 (stereo not drawn) [Compound 630] | < 100 | 20 to 50 | 
COCc1nnc2n1Cc1c(C#Cc3cnc(C)s3)ncn1-c1ccc(Cl)cc1-2 [Compound 608] | < 100 | 20 to 50 | 
FC(F)(F)Oc1ccc2c(c1)-n1nncc1Cc1c(-c3ncco3)ncn1-2 [Compound 476] | < 100 | 5 to 20 | 
COCc1nnn2c1Cc1c(C#Cc3cncc(C)c3)ncn1-c1ccc(Cl)cc1-2 [Compound 639] | < 100 | 20 to 50 | 
COc1ccc(C#Cc2ncn3c2Cc2cnnn2-c2cc(OC)ccc2-3)nc1 [Compound 531] | < 100 | 5 to 20 | 
CCOC(=O)c1ncn2c1Cn1c(C)nnc1-c1cc(OC)ccc1-2 [Ethyl 3-methoxy-7-methyl-9H-benzo[f]imidazo[1,5-a][1,2,4]tri] |  |  | effect on binding of Ro 15-4513 in hippocampus (GABAAα5 receptor; 0.01-10 mg/kg): blocked the binding of Ro154513 in the hippocampus; effect on binding/levels of Ro 15-4513 in cerebellum (GABAAα5 receptor; 0.01-10 mg/kg): did not affect binding of Ro15413 in the cerebellum
COCc1nnc2n1Cc1c(C#Cc3ccc4[nH]ccc4c3)ncn1-c1ccc(OC)cc1-2 [Compound 715] | < 100 | 20 to 50 | 
COc1ccc2c(c1)-n1nncc1Cc1c(C3=N[C@H](c4cccc(Cl)c4)CO3)ncn1-2 [Compound 516] | < 100 | 5 to 20 | 
COCc1nnc2n1Cc1c(C#Cc3ccc(OC)c(C)n3)ncn1-c1ccc(Cl)cc1-2 [Compound 581] | < 100 | 20 to 50 | 
FC(F)(F)c1ccc2c(c1)-n1nncc1Cc1c(C3=NC[C@@H](c4ccccc4)O3)ncn1-2 [Compound 624] | < 100 | 5 to 20 | 
COc1ccc2c(c1)-n1nncc1Cc1c(C3=N[C@H](c4ccccc4)CO3)ncn1-2 [Compound 290] | < 100 | 20 to 50 | 
COc1ccc2c(c1)-n1nncc1Cc1c(C#Cc3c[nH]nc3OC)ncn1-2 [Compound 663] | < 100 | 20 to 50 | 
COc1ccc2c(c1)-n1nncc1Cc1c(C3=NC[C@H](c4ccccc4)O3)ncn1-2 [Compound 511] | < 100 | 5 to 20 | 
CCOC(=O)c1ncn2c1Cc1c(Cc3cccnc3)nnn1-c1cc(C)ccc1-2 [Compound 111] | < 100 | 20 to 50 | 
COCc1nnc2n1Cc1c(C#Cc3ccn4ccnc4c3)ncn1-c1ccc(Cl)cc1-2 [Compound 679] | < 100 | > 50 | 
Cc1ncc(C#Cc2ncn3c2Cc2cnnn2-c2cc(Cl)ccc2-3)n1C [Compound 666] | < 100 | 20 to 50 | 
